# Measured values reported in patent publication US20110039721A1, “METHOD FOR PREDICTION ABOUT CARCINOGENICITY OF SUBSTANCE IN RODENT” (Chemicals Evaluation and Research Institute, priority 2007, published 2011).
# Experiments:
# [1] = test system: mRNA expressed from the genes (A) to (D) in rat liver; assay: Behavior of genes (mRNA expression level, oligo-DNA microarray) in rat liver after 28-day oral administration; format: in vivo; conditions: for Behavior of gene caused by administration of chemical substance, Gene No. 4846 / Behavior of gene caused by administration of chemical substance, Gene No. 2026 / Behavior of gene caused by administration of chemical substance, Gene No. 4218 / Behavior of gene caused by administration of chemical substance, Gene No. 6182 / Behavior of gene caused by administration of chemical substance, Gene No. 5600: gene group (A); for Behavior of gene caused by administration of chemical substance, Gene No. 4846: Unigene No. Rn.144554; for Behavior of gene caused by administration of chemical substance, Gene No. 2026 / Behavior of gene caused by administration of chemical substance, Gene No. 4218: Unigene No. Rn.167075; for Behavior of gene caused by administration of chemical substance, Gene No. 6182: Unigene No. Rn.5834; for Behavior of gene caused by administration of chemical substance, Gene No. 5600: Unigene No. Rn.9836; for Behavior of gene caused by administration of chemical substance, Gene No. 1494 / Behavior of gene caused by administration of chemical substance, Gene No. 2045 / Behavior of gene caused by administration of chemical substance, Gene No. 2203: gene group (B); for Behavior of gene caused by administration of chemical substance, Gene No. 1494: Unigene No. Rn.1430; for Behavior of gene caused by administration of chemical substance, Gene No. 2045: Unigene No. Rn.19329; for Behavior of gene caused by administration of chemical substance, Gene No. 2203: Unigene No. Rn.21240; for Behavior of gene caused by administration of chemical substance, Gene No. 533 / Behavior of gene caused by administration of chemical substance, Gene No. 725 / Behavior of gene caused by administration of chemical substance, Gene No. 1163 / Behavior of gene caused by administration of chemical substance, Gene No. 4973 / Behavior of gene caused by administration of chemical substance, Gene No. 4095 / Behavior of gene caused by administration of chemical substance, Gene No. 1334 / Behavior of gene caused by administration of chemical substance, Gene No. 6620 / Behavior of gene caused by administration of chemical substance, Gene No. 6303 / Behavior of gene caused by administration of chemical substance, Gene No. 5878 / Behavior of gene caused by administration of chemical substance, Gene No. 1131 / Behavior of gene caused by administration of chemical substance, Gene No. 1562 / Behavior of gene caused by administration of chemical substance, Gene No. 1741 / Behavior of gene caused by administration of chemical substance, Gene No. 893 / Behavior of gene caused by administration of chemical substance, Gene No. 6026 / Behavior of gene caused by administration of chemical substance, Gene No. 154 / Behavior of gene caused by administration of chemical substance, Gene No. 1993 / Behavior of gene caused by administration of chemical substance, Gene No. 813 / Behavior of gene caused by administration of chemical substance, Gene No. 2494 / Behavior of gene caused by administration of chemical substance, Gene No. 2546 / Behavior of gene caused by administration of chemical substance, Gene No. 3776 / Behavior of gene caused by administration of chemical substance, Gene No. 3929 / Behavior of gene caused by administration of chemical substance, Gene No. 1119 / Behavior of gene caused by administration of chemical substance, Gene No. 6742 / Behavior of gene caused by administration of chemical substance, Gene No. 5634: gene group (C); for Behavior of gene caused by administration of chemical substance, Gene No. 533: Unigene No. Rn.106184; for Behavior of gene caused by administration of chemical substance, Gene No. 725: Unigene No. Rn.108075; for Behavior of gene caused by administration of chemical substance, Gene No. 1163: Unigene No. Rn.11766; for Behavior of gene caused by administration of chemical substance, Gene No. 4973: Unigene No. Rn.118529; for Behavior of gene caused by administration of chemical substance, Gene No. 4095: Unigene No. Rn.119024; for Behavior of gene caused by administration of chemical substance, Gene No. 1334 / Behavior of gene caused by administration of chemical substance, Gene No. 6620: Unigene No. Rn.120914; for Behavior of gene caused by administration of chemical substance, Gene No. 6303: Unigene No. Rn.123063; for Behavior of gene caused by administration of chemical substance, Gene No. 5878: Unigene No. Rn.143213; for Behavior of gene caused by administration of chemical substance, Gene No. 1131: Unigene No. Rn.144946; for Behavior of gene caused by administration of chemical substance, Gene No. 1562: Unigene No. Rn.14744; for Behavior of gene caused by administration of chemical substance, Gene No. 1741: Unigene No. Rn.1647; for Behavior of gene caused by administration of chemical substance, Gene No. 893: Unigene No. Rn.164817; for Behavior of gene caused by administration of chemical substance, Gene No. 6026: Unigene No. Rn.167685; for Behavior of gene caused by administration of chemical substance, Gene No. 154: Unigene No. Rn.185941; for Behavior of gene caused by administration of chemical substance, Gene No. 1993: Unigene No. Rn.18728; for Behavior of gene caused by administration of chemical substance, Gene No. 813: Unigene No. Rn.201760; for Behavior of gene caused by administration of chemical substance, Gene No. 2494: Unigene No. Rn.23969; for Behavior of gene caused by administration of chemical substance, Gene No. 2546: Unigene No. Rn.24561; for Behavior of gene caused by administration of chemical substance, Gene No. 3776: Unigene No. Rn.43232; for Behavior of gene caused by administration of chemical substance, Gene No. 3929: Unigene No. Rn.4620; for Behavior of gene caused by administration of chemical substance, Gene No. 1119: Unigene No. Rn.9757; for Behavior of gene caused by administration of chemical substance, Gene No. 6742: Unigene No. Rn.9779; for Behavior of gene caused by administration of chemical substance, Gene No. 5634: Unigene No. Rn.9862; for Behavior of gene caused by administration of chemical substance, Gene No. 5726: gene group (D), Unigene No. Rn.9939
# In short: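 Groups of four male F344 SPF rats aged 5 weeks are gavaged once a day for 28 days with test chemical in solvent or with solvent alone at equal volume. Total RNA comes from liver taken on day 28. Fold change of 1.5 or 1/1.5 versus control, directionally consistent, defines significance.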
# liver = conditions: classification of the substance (Cr+/Cr−); cited from earlier work
# [2] = classification of the substance (M+/M−); cited from earlier work
# rodent = conditions: classification of the substance (C+/C−); cited from earlier work
smiles,measurement,setting,value
"CC/C(=C(/CC)c1ccc(O)cc1)c1ccc(O)cc1 [TS068, Diethylstilbestrol]","Behavior of gene caused by administration of chemical substance, Gene No. 4846",[1]; mRNA vs vehicle control group,+
same,"Behavior of gene caused by administration of chemical substance, Gene No. 2026",[1]; mRNA vs vehicle control group,−
same,"Behavior of gene caused by administration of chemical substance, Gene No. 4218",[1]; mRNA vs vehicle control group,+
same,"Behavior of gene caused by administration of chemical substance, Gene No. 6182",[1]; mRNA vs vehicle control group,+
same,"Behavior of gene caused by administration of chemical substance, Gene No. 5600",[1]; mRNA vs vehicle control group,+
same,"Behavior of gene caused by administration of chemical substance, Gene No. 1494",[1]; mRNA vs vehicle control group,−
same,"Behavior of gene caused by administration of chemical substance, Gene No. 2045",[1]; mRNA vs vehicle control group,−
same,"Behavior of gene caused by administration of chemical substance, Gene No. 2203",[1]; mRNA vs vehicle control group,−
same,"Behavior of gene caused by administration of chemical substance, Gene No. 533",[1]; mRNA vs vehicle control group,+
same,"Behavior of gene caused by administration of chemical substance, Gene No. 725",[1]; mRNA vs vehicle control group,+
same,"Behavior of gene caused by administration of chemical substance, Gene No. 1163",[1]; mRNA vs vehicle control group,+
same,"Behavior of gene caused by administration of chemical substance, Gene No. 4973",[1]; mRNA vs vehicle control group,+
same,"Behavior of gene caused by administration of chemical substance, Gene No. 4095",[1]; mRNA vs vehicle control group,+
same,"Behavior of gene caused by administration of chemical substance, Gene No. 1334",[1]; mRNA vs vehicle control group,+
same,"Behavior of gene caused by administration of chemical substance, Gene No. 6620",[1]; mRNA vs vehicle control group,+
same,"Behavior of gene caused by administration of chemical substance, Gene No. 6303",[1]; mRNA vs vehicle control group,+
same,"Behavior of gene caused by administration of chemical substance, Gene No. 5878",[1]; mRNA vs vehicle control group,+
same,"Behavior of gene caused by administration of chemical substance, Gene No. 1131",[1]; mRNA vs vehicle control group,+
same,"Behavior of gene caused by administration of chemical substance, Gene No. 1562",[1]; mRNA vs vehicle control group,+
same,"Behavior of gene caused by administration of chemical substance, Gene No. 1741",[1]; mRNA vs vehicle control group,+
same,"Behavior of gene caused by administration of chemical substance, Gene No. 893",[1]; mRNA vs vehicle control group,+
same,"Behavior of gene caused by administration of chemical substance, Gene No. 6026",[1]; mRNA vs vehicle control group,+
same,"Behavior of gene caused by administration of chemical substance, Gene No. 154",[1]; mRNA vs vehicle control group,+
same,"Behavior of gene caused by administration of chemical substance, Gene No. 1993",[1]; mRNA vs vehicle control group,+
same,"Behavior of gene caused by administration of chemical substance, Gene No. 813",[1]; mRNA vs vehicle control group,+
same,"Behavior of gene caused by administration of chemical substance, Gene No. 2494",[1]; mRNA vs vehicle control group,+
same,"Behavior of gene caused by administration of chemical substance, Gene No. 2546",[1]; mRNA vs vehicle control group,+
same,"Behavior of gene caused by administration of chemical substance, Gene No. 3776",[1]; mRNA vs vehicle control group,+
same,"Behavior of gene caused by administration of chemical substance, Gene No. 3929",[1]; mRNA vs vehicle control group,+
same,"Behavior of gene caused by administration of chemical substance, Gene No. 1119",[1]; mRNA vs vehicle control group,+
same,"Behavior of gene caused by administration of chemical substance, Gene No. 6742",[1]; mRNA vs vehicle control group,+
same,"Behavior of gene caused by administration of chemical substance, Gene No. 5634",[1]; mRNA vs vehicle control group,+
same,"Behavior of gene caused by administration of chemical substance, Gene No. 5726",[1]; mRNA vs vehicle control group,−
same,Liver carcinogenicity,liver,Cr−
same,Mutagenicity by Ames test,[2],M−
same,Carcinogenicity,rodent,C+
"CC(=O)Oc1ccccc1C(=O)O [TS071, Aspirin]","Behavior of gene caused by administration of chemical substance, Gene No. 4846",[1],−
same,"Behavior of gene caused by administration of chemical substance, Gene No. 2026",[1],−
same,"Behavior of gene caused by administration of chemical substance, Gene No. 4218",[1],−
same,"Behavior of gene caused by administration of chemical substance, Gene No. 6182",[1],−
same,"Behavior of gene caused by administration of chemical substance, Gene No. 5600",[1],−
same,"Behavior of gene caused by administration of chemical substance, Gene No. 1494",[1],−
same,"Behavior of gene caused by administration of chemical substance, Gene No. 2045",[1],−
same,"Behavior of gene caused by administration of chemical substance, Gene No. 2203",[1],−
same,"Behavior of gene caused by administration of chemical substance, Gene No. 533",[1],−
same,"Behavior of gene caused by administration of chemical substance, Gene No. 725",[1],−
same,"Behavior of gene caused by administration of chemical substance, Gene No. 1163",[1],−
same,"Behavior of gene caused by administration of chemical substance, Gene No. 4973",[1],−
same,"Behavior of gene caused by administration of chemical substance, Gene No. 4095",[1],−
same,"Behavior of gene caused by administration of chemical substance, Gene No. 1334",[1],−
same,"Behavior of gene caused by administration of chemical substance, Gene No. 6620",[1],−
same,"Behavior of gene caused by administration of chemical substance, Gene No. 6303",[1],−
same,"Behavior of gene caused by administration of chemical substance, Gene No. 5878",[1],−
same,"Behavior of gene caused by administration of chemical substance, Gene No. 1131",[1],+
same,"Behavior of gene caused by administration of chemical substance, Gene No. 1562",[1],−
same,"Behavior of gene caused by administration of chemical substance, Gene No. 1741",[1],−
same,"Behavior of gene caused by administration of chemical substance, Gene No. 893",[1],−
same,"Behavior of gene caused by administration of chemical substance, Gene No. 6026",[1],−
same,"Behavior of gene caused by administration of chemical substance, Gene No. 154",[1],−
same,"Behavior of gene caused by administration of chemical substance, Gene No. 1993",[1],−
same,"Behavior of gene caused by administration of chemical substance, Gene No. 813",[1],−
same,"Behavior of gene caused by administration of chemical substance, Gene No. 2494",[1],−
same,"Behavior of gene caused by administration of chemical substance, Gene No. 2546",[1],−
same,"Behavior of gene caused by administration of chemical substance, Gene No. 3776",[1],−
same,"Behavior of gene caused by administration of chemical substance, Gene No. 3929",[1],−
same,"Behavior of gene caused by administration of chemical substance, Gene No. 1119",[1],−
same,"Behavior of gene caused by administration of chemical substance, Gene No. 6742",[1],−
same,"Behavior of gene caused by administration of chemical substance, Gene No. 5634",[1],−
same,"Behavior of gene caused by administration of chemical substance, Gene No. 5726",[1],−
same,Liver carcinogenicity,liver,Cr−
same,Mutagenicity by Ames test,[2],M−
same,Carcinogenicity,rodent,C−
